Data published in US11802107B2, “Compounds and methods of use” (Signum Biosciences, Inc., priority 2017, dated 2023).

Experiments:
Assay type in all cases: cell-based
IL-10 = assay: T-cell receptor (anti-CD3/CD28)-induced IL-10 on PBMCs; details: Homo sapiens, PBMC, anti-CD3/CD28 beads, 24 hours, ELISA, read-out: TCR-PBMCs IL-10 Protein IC50
Description: (§1) Cryopreserved human Peripheral Blood Mononuclear cells (PBMCs) from healthy adult donors were obtained from Zen Bio, Inc (Cat No. SER-PBMC-F). Cells were cultured in 96-well plates with lymphocyte media (Cat No. LYMPH-1) and were pre-treated with test materials (≤100 μM) for 2 hours and later co-treated with test materials and anti-CD3/CD28 beads (Thermo-Fisher; Cat No. 11131D) at 1:0.4 PBMC:bead ratio for 24 hours at 37° C. and 5% CO2. After incubation, cell media supernatants were harvested and used to measure cytokine levels (IL-4, IL-5, IL-10) using ELISA kits (BD Biosciences® #555194, #555157; R&D Systems® #DY317). Results were represented as percent of inhibition relative to untreated and anti-CD3/CD28 beads-only treated cells. IC50 values were determined by non-linear regression analysis using the four-parameter logistic equation.

IFNγ = assay: PHA-induced IFNγ on PBMCs; details: Homo sapiens, PBMC, PHA-L 20 μg/mL, 24 hours, ELISA
Description: Cryopreserved human Peripheral Blood Mononuclear cells (PBMCs) from healthy adult donors were obtained from Zen Bio, Inc (Cat No. SER-PBMC-F). Cells were cultured in 96-well plates with lymphocyte media (Cat No. LYMPH-1) and were pre-treated with test materials (≤100 μM) for 2 hours and later co-treated with test materials and PHA-L (Sigma Aldrich, Cat No. 11249738001) at 20 μg/mL and incubated for 24 hours at 37° C. and 5% CO2. After incubation, cell media supernatants were harvested and used to measure cytokine levels (IL-2, IFNγ) using ELISA kits (R&D Systems® #DY202, #DY285). Results were represented as percent of inhibition relative to untreated and PHA-only treated cells. IC50 values were determined by non-linear regression analysis using the four-parameter logistic equation.

IL-17 = assay: Concanavalin-A-induced IL-17 on PBMCs; details: Homo sapiens, PBMC, ConA, 24 hours, ELISA
IL-23 = assay: LPS/IFNγ-induced IL-23 on CD14+ monocytes; details: Homo sapiens, Monocyte, 50 μg/mL LPS + 5 μg/mL IFNγ, 24 hours, ELISA
Description: Cryopreserved human peripheral blood monocytes cells (CD14+) from healthy adult donors were obtained from Zen Bio, Inc (Cat No. SER-CD4-F). Cells were cultured in 96-well plates with lymphocyte media (Cat No. LYMPH-1) and were pre-treated with test materials (≤100 μM) for 2 hours and later co-treated with test materials and 50 μg/mL LPS, 5 μg/mL IFNγ (Sigma Aldrich, Cat No. L4321, SRP3058) and incubated for 24 hours at 37° C. and 5% CO2. After incubation, cell media supernatants were harvested and used to measure cytokine levels (IL-23) using ELISA kits (R&D Systems® #DY1290). Results were represented as percent of inhibition relative to untreated and […] treated cells. IC50 values were determined by non-linear regression analysis using the four-parameter logistic equation.

IL-31 = assay: Anti-CD3/CD28+IL-4-induced IL-31 on PBMCs; details: Homo sapiens, PBMC, anti-CD3/CD28 beads + 50 ng/mL IL-4, 48 hours, ELISA, read-out: TCR/IL-4-PBMCs IL-31 IC50
Description: as §1, with “and 50 ng/mL recombinant human IL-4 (R&D Systems® #204-IL)” for “at 1:0.4 PBMC:bead ratio”, “48” for “24”, “(IL-22, IL-31)” for “(IL-4, IL-5, IL-10)”, “(R&D” for “(BD Biosciences® #555194, #555157; R&D”, “#DY782, #DY2824).” for “#DY317).”, “anti-CD3/CD28+IL-4 only” for “anti-CD3/CD28 beads-only”

IL-1b = assay: P. acnes-induced IL-1b protein on human PBMCs (ELISA); details: PBMC, PBMCs + live P. acnes 1:1, test material 30 PM, 24 hours
Description: (§2) Cryopreserved human Peripheral Blood Mononuclear cells (PBMCs) from healthy adult donors were obtained from Zen Bio, Inc (Cat No. SER-PBMC-F). Cells were cultured in 12-well plates with lymphocyte media (Cat No. LYMPH-1) and incubated with test materials ([…]) and live P. acnes (ATCC® 6919TM) at 1:1 PBMC: P. acnes bacteria ratio for 24 hours at 37° C. and 5% CO2. After incubation, cell media supernatants were harvested and used to measure pro-inflammatory cytokine levels (IL-8, TNF-α, IL-1b, IL-17) using ELISA kits (BD Biosciences® #557966, #555212, #555244; R&D Systems® #DY317). Total RNA was extracted from cells using the RNAqueous® kit (Ambion®; Cat No. 1912) and cDNA was obtained using the High Capacity RNA-to-cDNA kit (Applied Biosystems®; Cat No. 4387406). Quantitative PCR (qPCR) was performed using the TaqMan® Fast Advanced Master Mix (Applied Biosystems®; Cat No. 4444556) and specific TaqMan®-probes human gene primers CXCL8 (IL-8), IL1B (IL-1b), TNF (TNF-α), IL17A (IL-17A) and GAPDH to calculate the relative gene fold expression change per treatment. Gene expression analysis was performed using the comparative Ct method (also known as the 2-[delta][delta]Ct) approach by comparing the Ct values of P. acnes-only treated cells with the untreated samples and normalized to GAPDH gene expression as endogenous housekeeping gene.

IL-8 = assay: P. acnes-induced IL-8 protein on human PBMCs (ELISA); details: PBMCs + live P. acnes 1:1, test material 30 PM, 24 hours
Description: as §2

CXCL8 (IL-8) = assay: P. acnes-induced IL-8 gene on human PBMCs (qPCR); details: PBMC, PBMCs + live P. acnes 1:1, test material 30 PM, 24 hours
Description: as §2

TNF (TNF-α) = assay: P. acnes-induced TNF-α gene on human PBMCs (qPCR); details: PBMC, PBMCs + live P. acnes 1:1, test material 30 PM, 24 hours, read-out: TNFa-Gene % inhibition
Description: as §2

IL1B (IL-1b) = assay: P. acnes-induced IL-1b gene on human PBMCs (qPCR); details: PBMC, PBMCs + live P. acnes 1:1, test material 30 PM, 24 hours
Description: as §2

IL17A (IL-17A) = assay: P. acnes-induced IL-17 gene on human PBMCs (qPCR); details: PBMC, PBMCs + live P. acnes 1:1, test material 30 PM, 24 hours
Description: as §2

Question: Which results are given for `N#Cc1ccc(Oc2ccc3c(c2)COB3O)cc1` [AN2728, reference compound]?
Answer: IC50 (IL-10): 9 µM; IC50 (IFNγ): 0.3 µM; IC50 (IL-17): 3.1 µM; IC50 (IL-23): 0.65 µM; IC50 (IL-31): 0.008 nM

Question: How did the inhibition at 30 pM (IL-1b) turn out when `C/C(=C\CSCC(NC(=O)NCC(=O)O)C(=O)O)CCCC(C)CCCC(C)CCCC(C)C` (stereo not shown) [A] was run?
Answer: 38%

Question: What about the IC50 (IL-10) of the same compound?
Answer: 42 µM

Question: What does the source list for `C/C(=C\CSC[C@H](NC(=O)N(C)CC(=O)O)C(=O)O)CCCC(C)CCCC(C)CCCC(C)C` (stereo partly drawn) [Compound C, (2R)-2-{[(carboxymethyl)(methyl)carbamoyl]amino}-3-{[(2E)-3,7,11,15-tetramethylhexadec-2-en-1-yl]sulfanyl}propanoic acid]?
Answer: IL-8 Protein % inhibition (IL-8): 8%; inhibition at 30 pM (IL-1b): 36%; inhibition at 30 pM (CXCL8 (IL-8)): 0%; inhibition at 30 pM (TNF (TNF-α)): 0%; inhibition at 30 pM (IL1B (IL-1b)): 0%; inhibition at 30 pM (IL17A (IL-17A)): 0%; IC50 (IL-10): 34 µM; IC50 (IFNγ): > 10 µM; IC50 (IL-17): 0.5 µM; IC50 (IL-23): 0.19 µM

Question: With `C/C(=C\CSC[C@H](NC(=O)N1CCC[C@H]1C(=O)O)C(=O)O)CCCC(C)CCCC(C)CCCC(C)C` (stereo partly shown) [Compound E] as the compound, how does the “IL-8 Protein % inhibition” value (IL-8) read?
Answer: 67%

Question: And the inhibition at 30 pM (IL-1b)?
Answer: 82%

Question: And the inhibition at 30 pM (CXCL8 (IL-8))?
Answer: 8%

Question: And the inhibition at 30 pM (TNF (TNF-α))?
Answer: 0%

Question: And the inhibition at 30 pM (IL1B (IL-1b))?
Answer: 20%

Question: What about the inhibition at 30 pM (IL17A (IL-17A)) of the same compound?
Answer: 0%

Question: What about the IC50 (IL-10) of the same compound?
Answer: 39 µM

Question: What about the IC50 (IFNγ) of the same compound?
Answer: 1.4 µM

Question: And the IC50 (IL-17)?
Answer: 11.4 µM

Question: What about the IC50 (IL-23) of the same compound?
Answer: 11.2 µM

Question: And the IC50 (IL-31)?
Answer: 1 nM

Question: Which results are given for `C/C(=C\CSCC(NC(=O)N(CC(=O)O)CC(=O)O)C(=O)O)CCCC(C)CCCC(C)CCCC(C)C` (stereo not shown) [Compound G]?
Answer: IL-8 Protein % inhibition (IL-8): 74%; inhibition at 30 pM (IL-1b): 91%; inhibition at 30 pM (CXCL8 (IL-8)): 0%; inhibition at 30 pM (TNF (TNF-α)): 0%; inhibition at 30 pM (IL1B (IL-1b)): 10%; inhibition at 30 pM (IL17A (IL-17A)): 0%; IC50 (IFNγ): > 10 µM; IC50 (IL-17): 94.2 µM; IC50 (IL-23): 3.08 µM

Question: How did the inhibition at 30 pM (CXCL8 (IL-8)) turn out when `C/C(=C\CSC[C@H](NC(=O)COCC(=O)O)C(=O)O)CCCC(C)CCCC(C)CCCC(C)C` (stereo partly shown) [Compound T] was run?
Answer: 0%

Question: What about the inhibition at 30 pM (TNF (TNF-α)) of the same compound?
Answer: 0%

Question: And the inhibition at 30 pM (IL1B (IL-1b))?
Answer: 27%

Question: And the inhibition at 30 pM (IL17A (IL-17A))?
Answer: 0%

Question: What about the IC50 (IL-10) of the same compound?
Answer: 19 µM

Question: And the IC50 (IFNγ)?
Answer: > 10 µM

Question: What about the IC50 (IL-17) of the same compound?
Answer: 69.7 µM

Question: And the IC50 (IL-23)?
Answer: 0.05 µM

Question: What about the IC50 (IL-31) of the same compound?
Answer: 1 nM
